Measurements: patent US20040248195A1, “Uses of a thyx polypeptide or a nucleic acid encoding such a polypeptide, in particular for screening anti-bacterial or anti-viral compounds” (priority 2001, published 2004)

Experiments:
[1] = molecular target: T1, ThyX protein of H. pylori (Helicobacter pylori, UniProt O26061); assay: Tritium release from [5-3H]dUMP by purified ThyX (thymidylate synthase activity); assay type: biochemical; settings: for inhibition of ThyX activity: result in words
T1 construct: made in house
T1 sequence (O26061 whole entry): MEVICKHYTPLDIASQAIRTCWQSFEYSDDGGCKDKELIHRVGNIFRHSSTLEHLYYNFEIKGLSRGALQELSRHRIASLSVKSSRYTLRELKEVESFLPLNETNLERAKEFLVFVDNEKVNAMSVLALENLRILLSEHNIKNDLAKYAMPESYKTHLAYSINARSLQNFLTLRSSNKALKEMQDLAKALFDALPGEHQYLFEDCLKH
Source text: In dTMP formation, the loss of tritium from […] in the solvent is a compulsory intermediary, allowing to quantify the thymidylate-synthetase activity after removal of radioactive nucleotides from the reaction mixtures (ROBERTS, 1966). In order to tackle the biochemical mechanism, wherein ThyX could circumvent the requirement for the ThyA in the de novo synthesis of thymydilate, the purified ThyX protein was used to the same extent.
N^5,N^10—CH2H4folate was non-enzymatically formed, through incubation of 2 mM of tetrahydrofolic acid (Sigma®) with 100 mM of β-mercaptoethanol and 20 mM of formol for 30 minutes in the dark and at room temperature. […] The control reactions were achieved under analogous conditions, without tetrahydrofolic acid. […], a specific activity at 16,2 Ci/mmol (Amersham) and stopped after 60 minutes at 37° C. by two extractions with 250 μl of active carbon [10% (weight/volume) of Norit A] in 2% trichloroacetic acid so as to remove the nucleotides from the reaction mixtures. The remanent radioactivity in the supernatant was determined according to MYLLYKALLIO (2000).

[2] = test system: transformants containing thyX in the E.coli X2913(ΔthyA) strain; settings: only high trimethoprim concentrations inhibit

`Nc1nc2c(c(=O)[nH]1)N1CN(c3ccc(C(=O)N[C@@H](CCC(=O)O)C(=O)O)cc3)CC1CN2` (stereo partly shown) [CH2H4folate] was tested, and the “concentration sufficient for saturating the release activity of tritium” value ([1]; complete reaction conditions, 60 minutes incubation) was 100 µM.

`O=c1ccn([C@@H]2O[C@H](COP(=O)(O)O)[C@@H](O)[C@H]2O)c(=O)[nH]1` [UMP] was tested, and the “nmol of released ^3H/mg of protein (60 minute incubation)” value ([1]; complete test plus 500 μM of the added nucleotide, 9 μM 3H-dUMP, 60 minute incubation) was 64.4 nmol of released ^3H/mg of protein, the “released ^3H as % of the complete test” value ([1]; complete test plus 500 μM of the added nucleotide, complete = 100%, 60 minute incubation) was 102.2% and the “use as substrate by the ThyX activity (competition experiments)” value ([1]; simple competition experiments) was “does not use UMP as a substrate”.

With `Cc1cn([C@H]2C[C@H](O)[C@@H](COP(=O)(O)O)O2)c(=O)[nH]c1=O` [dTMP, thymidine 5′-monophosphate] the “inhibition of ThyX activity” value [1] was “inhibited”.

With `O=c1[nH]c(=O)n([C@H]2C[C@H](O)[C@@H](COP(=O)(O)O)O2)cc1F` [fluoro-dUMP] the “inhibition of ThyX activity” value [1] was “inhibitor”.

`COc1cc(Cc2cnc(N)nc2N)cc(OC)c1OC` [trimethoprim] was tested, and the “inhibition of growth of thyX transformants” value [2] was “inhibited”.
